# System: yeast genes (expressed mRNA)
# Assay: DNA chip measurement of expressed mRNA of yeast genes after culture with a toxic chemical substance
# Type: cell-based, Saccharomyces cerevisiae S288C
# Details: for level of expressed mRNA in the presence of chemical substance / level in the absence of chemical substance: cultured two hours with the chemical substance; for The level of expressed mRNA in the presence of chemical substance/The level of expressed mRNA in the absence of chemical substance: cultured two hours with substance
# Method: Yeast (Saccharomyces cerevisiae S288C (a SUC2mal mel gap2 CUP1)) were cultured at 25° C. on YPD medium (yeast extract 1%, polypeptone 2%, glucose 2%). One of toxic chemical substances was added to the cell at logarithmic growth phase, and the cell was further cultured for two hours. Cell was cultured without any chemical substance in the same condition, and was used as a control. Concentrations of the chemical substances were defined to inhibit the growth of the yeast but not lead to death.
# After the completion of cultivation, the culture was centrifuged to collect the cells. To the cells, sodium acetate buffer (50 mM sodium acetate, 10 mM EDTA, 1% SDS) was added, and the mixture was shaken at 65° C. for five minutes, followed by returning to room temperature, and obtaining the supernatant, which procedure was repeated two times. To the supernatant, ½ amount of a solution of phenol/chloroform (1:1) was added, and the mixture was centrifuged to give a supernatant, an equal amount of chloroform was added, and the mixture was centrifuged to give a supernatant. To the supernatant, an equal amount of isopropanol containing 0.3 M sodium acetate was added, and the mixture was allowed to stand at room temperature for 30 minutes, after which the mixture was centrifuged to give sediment of the whole RNAs. Seventy % ethanol was added to the sediment, and the mixture was again centrifuged to give sediment, which was then dried and dissolved in water. mRNA was isolated from the whole RNAs as followings. In view of the fact that a poly A chain is attached to the 3′ terminus of mRNA, a polynucleotide having a poly T structure which was immobilized on the surface of latex beads was used to trap the mRNA, and then the mRNA was washed and eluted with spine column (Oligotex-dT30<Super>mRNA Purification Kit, Takara). Reverse transcription of the mRNA was conducted with a reverse transcriptase (Super Script II Reverse Transcriptase; catalogue No. 18064-014, GibcoBRL) using fluorescence-labeled nucleotides to give cDNAs that were introduced with Cy3-dUTP or Cy5-dUTP during the reverse transcription.
# The labeled cDNAs were dissolved in TE buffer (10 mM Tris-HCl/1 mM EDTA, pH 8.0), and the solution was dropped on the DNA chip containing the whole genes of yeast (DNA Chip Research Inc. Japan) so that the cDNAs were hybridized on the DNA chip at 65° C. for over 12 hours. The fluoresces intensity of the DNA chip was read with a scanner, and the ratio relative to the fluorescence intensity resulting from the absence of chemical substance was estimated as the following, which is shown in Tables 1 to 9.
# In the Tables, “Intensity” indicated in the rightmost column is a value of the level of expressed mRNA of each gene in control cells as divided by the average level of the expressions of the whole genes. A gene of which mRNA level is lower in control, and is higher in cases of addition of chemical substance, is especially useful in the detection of toxic substances.
# Here, when a ratio of an amount of mRNA expressed in the presence of the chemical substance to an amount of mRNA expressed in the absence of the chemical substance is two or more, then it is considered significant.
compound,measurement,setting,value
"[Cl][Hg][Cl] [(3), HgCl2]",level of expressed mRNA in the presence of chemical substance / level in the absence of chemical substance,yeast gene YDR128W,1.4
same,level of expressed mRNA in the presence of chemical substance / level in the absence of chemical substance,yeast gene YDR133C,2.9
same,level of expressed mRNA in the presence of chemical substance / level in the absence of chemical substance,yeast gene YDR250C,0.9
same,level of expressed mRNA in the presence of chemical substance / level in the absence of chemical substance,yeast gene YDR278C,0.9
same,level of expressed mRNA in the presence of chemical substance / level in the absence of chemical substance,yeast gene YDR281C,0.4
same,The level of expressed mRNA in the presence of chemical substance/The level of expressed mRNA in the absence of chemical substance,yeast gene YDR330W,1.2
same,level of expressed mRNA in the presence of chemical substance / level in the absence of chemical substance,yeast gene YDR366C,0.8
same,The level of expressed mRNA in the presence of chemical substance/The level of expressed mRNA in the absence of chemical substance,yeast gene YDR411C,1.8
same,The level of expressed mRNA in the presence of chemical substance/The level of expressed mRNA in the absence of chemical substance,yeast gene YDR511W,0.9
same,The level of expressed mRNA in the presence of chemical substance/The level of expressed mRNA in the absence of chemical substance,yeast gene YDR545W,0.6
same,The level of expressed mRNA in the presence of chemical substance/The level of expressed mRNA in the absence of chemical substance,yeast gene YEL001C,1.4
same,The level of expressed mRNA in the presence of chemical substance/The level of expressed mRNA in the absence of chemical substance,yeast gene YER004W,1.9
same,The level of expressed mRNA in the presence of chemical substance/The level of expressed mRNA in the absence of chemical substance,yeast gene YER035W,1.6
same,The level of expressed mRNA in the presence of chemical substance/The level of expressed mRNA in the absence of chemical substance,yeast gene YER079W,1.9
same,The level of expressed mRNA in the presence of chemical substance/The level of expressed mRNA in the absence of chemical substance,yeast gene YER106W,1.3
same,The level of expressed mRNA in the presence of chemical substance/The level of expressed mRNA in the absence of chemical substance,yeast gene YER158C,0.9
same,The level of expressed mRNA in the presence of chemical substance/The level of expressed mRNA in the absence of chemical substance,yeast gene YER163C,1.2
same,The level of expressed mRNA in the presence of chemical substance/The level of expressed mRNA in the absence of chemical substance,yeast gene YER175C,1.3
same,The level of expressed mRNA in the presence of chemical substance/The level of expressed mRNA in the absence of chemical substance,yeast gene YFL006W,1.6
same,The level of expressed mRNA in the presence of chemical substance/The level of expressed mRNA in the absence of chemical substance,yeast gene YFL010C,1.3
same,The level of expressed mRNA in the presence of chemical substance/The level of expressed mRNA in the absence of chemical substance,yeast gene YFL024C,1.1
same,The level of expressed mRNA in the presence of chemical substance/The level of expressed mRNA in the absence of chemical substance,yeast gene YFL032W,1.6
same,level of expressed mRNA in the presence of chemical substance / level in the absence of chemical substance,yeast gene YFR026C,1.0
same,The level of expressed mRNA in the presence of chemical substance/The level of expressed mRNA in the absence of chemical substance,yeast gene YGL037C,6.5
same,The level of expressed mRNA in the presence of chemical substance/The level of expressed mRNA in the absence of chemical substance,yeast gene YGL047W,1.6
same,The level of expressed mRNA in the presence of chemical substance/The level of expressed mRNA in the absence of chemical substance,yeast gene YGL053W,1.2
same,level of expressed mRNA in the presence of chemical substance / level in the absence of chemical substance,yeast gene YGL088W,0.9
same,The level of expressed mRNA in the presence of chemical substance/The level of expressed mRNA in the absence of chemical substance,yeast gene YGL121C,1.4
same,The level of expressed mRNA in the presence of chemical substance/The level of expressed mRNA in the absence of chemical substance,yeast gene YGL199C,1.7
same,level of expressed mRNA in the presence of chemical substance / level in the absence of chemical substance,yeast gene YGR038W,3.5
same,The level of expressed mRNA in the presence of chemical substance/The level of expressed mRNA in the absence of chemical substance,yeast gene YGR101W,1.2
same,The level of expressed mRNA in the presence of chemical substance/The level of expressed mRNA in the absence of chemical substance,yeast gene YGR110W,2.2
same,The level of expressed mRNA in the presence of chemical substance/The level of expressed mRNA in the absence of chemical substance,yeast gene YGR130C,0.6
same,level of expressed mRNA in the presence of chemical substance / level in the absence of chemical substance,yeast gene YGR139W,0.8
same,The level of expressed mRNA in the presence of chemical substance/The level of expressed mRNA in the absence of chemical substance,yeast gene YGR154C,2.2
same,The level of expressed mRNA in the presence of chemical substance/The level of expressed mRNA in the absence of chemical substance,yeast gene YGR221C,0.9
same,level of expressed mRNA in the presence of chemical substance / level in the absence of chemical substance,yeast gene YGR243W,9.4
same,level of expressed mRNA in the presence of chemical substance / level in the absence of chemical substance,yeast gene YGR293C,1.6
same,level of expressed mRNA in the presence of chemical substance / level in the absence of chemical substance,yeast gene YHL006C,0.9
same,level of expressed mRNA in the presence of chemical substance / level in the absence of chemical substance,yeast gene YHR095W,1.5
same,level of expressed mRNA in the presence of chemical substance / level in the absence of chemical substance,yeast gene YHR105W,2.4
same,The level of expressed mRNA in the presence of chemical substance/The level of expressed mRNA in the absence of chemical substance,yeast gene YHR138C,2.2
same,level of expressed mRNA in the presence of chemical substance / level in the absence of chemical substance,yeast gene YHR181W,2.4
same,The level of expressed mRNA in the presence of chemical substance/The level of expressed mRNA in the absence of chemical substance,yeast gene YHR199C,3.2
same,The level of expressed mRNA in the presence of chemical substance/The level of expressed mRNA in the absence of chemical substance,yeast gene YIL023C,2.1
same,The level of expressed mRNA in the presence of chemical substance/The level of expressed mRNA in the absence of chemical substance,yeast gene YIL041W,2.1
same,The level of expressed mRNA in the presence of chemical substance/The level of expressed mRNA in the absence of chemical substance,yeast gene YIL087C,3.4
same,level of expressed mRNA in the presence of chemical substance / level in the absence of chemical substance,yeast gene YIL127C,0.2
same,level of expressed mRNA in the presence of chemical substance / level in the absence of chemical substance,yeast gene YJL017W,3.5
same,level of expressed mRNA in the presence of chemical substance / level in the absence of chemical substance,yeast gene YJL037W,1.4
same,The level of expressed mRNA in the presence of chemical substance/The level of expressed mRNA in the absence of chemical substance,yeast gene YJL057C,1.6
same,The level of expressed mRNA in the presence of chemical substance/The level of expressed mRNA in the absence of chemical substance,yeast gene YJL066C,1.2
same,The level of expressed mRNA in the presence of chemical substance/The level of expressed mRNA in the absence of chemical substance,yeast gene YJL082W,2.4
